Where no end group is shown, it is not given here.
Columns and labels:
Swiss Webster mice [1] = experiment: Saelens precipitated withdrawal test, CRH antagonist vs. TCAP-1, Protocol A (Example 3); type: in vivo, mouse; settings: TCAP-1 250 nmole/kg per time point vs. CRH antagonist 20 mg/kg per time point; morphine-treated mice; naloxone 2.5 mg/kg i.p.
plasma corticosterone = experiment: Plasma corticosterone levels in the Saelens precipitated withdrawal model, Protocol B (Example 3); type: in vivo, mouse; settings: morphine-treated mice, naloxone-precipitated withdrawal; for plasma corticosterone levels: TCAP-1 250 nmole/kg vs. CP154,526 5, 20, 50 mg/kg
Description: Two hours after the 11 a.m. injections, at 1 p.m., all mice received an intraperitoneal (“i.p.”) injection of Naloxone 2.5 mg/kg), baseline blood samples were taken and then they were immediately placed individually in an observation area and video recorded 20 minutes. The number of jumps (lifting of all feet off the ground) were recorded for 20 minutes. A second set of blood samples were taken post-jumps (about 30 minutes after the naloxone administration.
The same protocol as in Protocol A was followed with the exception that on day 2, there were three Group 3 mice (10 per group) which were administered: 5 mg/kg, 20 mg/kg or 50 mg/kg of the CRH antagonist CP154,526.

Swiss Webster mice [2] = experiment: Saelens drug-precipitated withdrawal in the mouse, TCAP-1 pre-morphine (Example 1); type: in vivo
Swiss Webster mice [3] = experiment: Saelens precipitated withdrawal test, single dose TCAP-1 post-morphine (Example 2); type: in vivo, mouse; settings: Group 4: TCAP-1 500 nmole/kg s.c. single dose post-morphine; naloxone 10 mg/kg i.p.
Swiss Webster mice [4] = experiment: Saelens precipitated withdrawal test, CRH antagonist dose response vs. TCAP-1, Protocol B, jumps (Example 3); type: in vivo, mouse; settings: TCAP-1 250 nmole/kg vs. CP154,526 5, 20, 50 mg/kg; morphine-treated mice; naloxone 2.5 mg/kg i.p.

Compound: Teneurin C-Terminal Associated Peptide-1 (QQLLGTGRVQGYDGYFVLSVEQYLELSDSANNIHFMRQSEI-NH2) [TCAP-1, mouse TCAP-1 in some experiments]
- number of jumps/20 minutes after naloxone (Swiss Webster mice [1]): much more effective and at lower dosages in significantly lowering the number of jumps
- plasma corticosterone levels (plasma corticosterone): more effective in reducing plasma corticosterone levels in the mice at lower dosage levels
- Mean # Jumps over 20 Minutes (Swiss Webster mice [2]; TCAP-1 10 nmole/kg s.c. days 1-3, morphine 32 mg/kg i.p. days 4-5, naloxone 10 mg/kg i.p., n = 3): 47
- Mean # Jumps over 20 Minutes (Swiss Webster mice [2]; TCAP-1 25 nmole/kg s.c. days 1-3, morphine 32 mg/kg i.p. days 4-5, naloxone 10 mg/kg i.p., n = 9): 47
- Mean # Jumps over 20 Minutes (Swiss Webster mice [2]; TCAP-1 50 nmole/kg s.c. days 1-3, morphine 32 mg/kg i.p. days 4-5, naloxone 10 mg/kg i.p., n = 9): 42
- Mean # Jumps over 20 Minutes (Swiss Webster mice [2]; TCAP-1 100 nmole/kg s.c. days 1-3, morphine 32 mg/kg i.p. days 4-5, naloxone 10 mg/kg i.p., n = 9): 32
- Mean # Jumps over 20 Minutes (Swiss Webster mice [2]; TCAP-1 250 nmole/kg s.c. days 1-3, morphine 32 mg/kg i.p. days 4-5, naloxone 10 mg/kg i.p., n = 9): 16
- jump rate after naloxone-precipitated morphine withdrawal (Swiss Webster mice [2]; TCAP-1 10-250 nmole/kg pre-morphine vs. morphine alone): reduced jump rates in a dose dependent manner
- number of jumps in 20 minutes after naloxone (Swiss Webster mice [3]): significantly reduced the number of jumps
- number of jumps/20 minutes (Swiss Webster mice [4]): more effective in reducing the number of jumps/20 minutes

Compound: C[C@]12N[C@H](Cc3ccccc31)c1ccccc12 [MK801, reference compound]
- Mean # Jumps over 20 Minutes (Swiss Webster mice [2]; Group 8: saline days 1-3, saline day 4-5, MK801 on day 5, no morphine, no naloxone, n = 4): 0

Compound: CCCCN(CC)c1nc(C)nc2c1c(C)cn2-c1c(C)cc(C)cc1C [CP154,526]
- plasma corticosterone levels (plasma corticosterone): still had an effect
- dose needed to approach TCAP-1 250 nmole/kg effect on corticosterone levels (plasma corticosterone): at least 50 mg/kg

From US20220062380A1 (priority 2018, published 2022)
